Measured values as given in ChEMBL document CHEMBL6182859, “Synthesis of Thioloformate-Containing Lathyrane Diterpene Derivates via a [3,3] Sigmatropic Rearrangement and Their Anti-HIV Activity” (J Nat Prod, 2025).

Tests used:
[1] = Cytotoxicity against human MT4 cells assessed as reduction in cell viability measured after 4 days by CellTiter 96 Aqueous One Solution Cell Proliferation Assay; type: toxicity, cell-based; details: time 4 day
[2] = test system: Human immunodeficiency virus 1; assay: Anti-HIV activity against HIV-1 NL 4.3 infected in human MT4 cells assessed as inhibition of virus-induced cytopathicity measured after 4 days by CellTiter 96 Aqueous One Solution Cell Proliferation Assay; type: functional, organism-based; details: Human immunodeficiency virus 1, NL 4.3, MT4, 96 h
[3] = test system: Human immunodeficiency virus 2; assay: Anti-HIV activity against HIV-2 ROD infected in human MT4 cells assessed as inhibition of virus-induced cytopathicity measured after 4 days by CellTiter 96 Aqueous One Solution Cell Proliferation Assay; type: functional, organism-based; details: Human immunodeficiency virus 2, ROD, MT4, 96 h
[4] = Selectivity index, ratio of CC50 for cytotoxicity against human MT4 cells to EC50 for antiviral activity against HIV-2 ROD infected in human MT4 cells; type: toxicity, cell-based; details: read-out: Ratio CC50/EC50
[5] = Selectivity index, ratio of CC50 for cytotoxicity against human MT4 cells to EC50 for antiviral activity against HIV-1 NL 4.3 infected in human MT4 cells; type: toxicity, cell-based; details: read-out: Ratio CC50/EC50

SMILES	CC50 at 96 h [1]	EC50 [2]	EC50 [3]	selectivity ratio [4]	selectivity ratio [5]
C/C1=C\[C@@H]2[C@H](CC/C(CSC(=O)Oc3ccc(F)cc3)=C\C3[C@@H](O)[C@@H](C)C[C@]3(O)C1=O)C2(C)C (some centres undefined)	45.2 µM	> 45.2 µM	> 45.2 µM		
C=C1CC[C@H]2[C@@H](/C=C(\C)C(=O)[C@@]3(OC(C)=O)C[C@H](C)[C@H](OC(=O)c4ccccc4)C3[C@H]1OC(C)=O)C2(C)C (some centres undefined)	> 100 µM	> 100 µM	> 100 µM		
COc1ccc(OC(=O)SC/C2=C/C3[C@@H](O)[C@@H](C)C[C@]3(O)C(=O)/C(C)=C/[C@@H]3[C@H](CC2)C3(C)C)cc1 (some centres undefined)	47.4 µM	> 47.4 µM	> 47.4 µM		
C/C1=C\[C@@H]2[C@H](CC/C(CSC(=O)Oc3ccc(C)cc3)=C\C3[C@@H](O)[C@@H](C)C[C@]3(O)C1=O)C2(C)C (some centres undefined)	45.1 µM	11.3 µM	6.6 µM	> 6.8	> 4
C/C1=C\[C@@H]2[C@H](CC/C(CSC(=O)Oc3cc(F)cc(F)c3)=C\C3[C@@H](O)[C@@H](C)C[C@]3(O)C1=O)C2(C)C (some centres undefined)	45 µM	> 45 µM	> 45 µM		
C/C1=C\[C@@H]2[C@H](CC/C(CSC(=O)Oc3ccccc3)=C\C3[C@@H](O)[C@@H](C)C[C@]3(O)C1=O)C2(C)C (some centres undefined)	13.1 µM	> 13.1 µM	13.1 µM		
C/C1=C\[C@@H]2[C@H](CC/C(CSC(=O)Oc3ccc(Cl)cc3)=C\C3[C@@H](O)[C@@H](C)C[C@]3(O)C1=O)C2(C)C (some centres undefined)	45.4 µM	> 45.4 µM	> 45.4 µM		
C/C1=C\[C@@H]2[C@H](CC/C(CSC(=O)Oc3c(C)cccc3C)=C\C3[C@@H](O)[C@@H](C)C[C@]3(O)C1=O)C2(C)C (some centres undefined)	> 100 µM	> 100 µM	> 100 µM		
C/C1=C\[C@@H]2[C@H](CC/C(CSC(=O)Oc3ccccc3Br)=C\C3[C@@H](O)[C@@H](C)C[C@]3(O)C1=O)C2(C)C (some centres undefined)	45.2 µM	> 45.2 µM	> 45.2 µM		
